The text below walks through data of US20250387422A1, “FORMULATION OF AN AMPHOTERICIN B HYBRID AMIDE DERIVATIVE IN DSGPEG2K MICELLES” (The Board of Trustees of the University of Illinois, priority 2022, published 2025).

What all share (type): physicochemical
Series [1] can be described thus: In vitro plasma compatibility of AM-2-19 in human plasma. From the text:
The in vitro plasma compatibility of AM-2-19 in human plasma is represented below: […]

Series [2] in a line: Solubility of AM-2-19-FB in D5W/DSG-PEG2000. The following applies: aqueous with cosolvent or surfactant or cyclodextrin.
Series [3] is described as follows: Solution stability of AM-2-19 in IV-compatible solvents (FIG. 1). The following applies: IV-compatible solvents such as 5% dextrose in water (D5W).
[4] abbreviates: ratio 1:0.1, final concentration AM-2-19 0.09 mg/mL.
Where [5] appears, read: ratio 1:0.1, final concentration AM-2-19 0.18 mg/mL.
[6] abbreviates: ratio 1:0.1, final concentration AM-2-19 0.45 mg/mL.
Where [7] appears, read: ratio 1:1, final concentration AM-2-19 0.50 mg/mL.
The mark [8] stands for this setting: ratio 1:1, final concentration AM-2-19 1.00 mg/mL.
The mark [9] stands for this setting: ratio 1:1, final concentration AM-2-19 2.50 mg/mL.

The term solubility denotes the concentration that dissolves in the medium under given conditions.

“Also recorded” adds a separate entry of the source.

For the compound `CC1OC(OC2/C=C/C=C/C=C/C=C/C=C/C=C/C=C/[C@H](C)[C@@H](O)[C@@H](C)[C@H](C)OC(=O)C[C@H](O)C[C@H](O)CC[C@@H](O)[C@H](O)C[C@H](O)C[C@]3(O)C[C@H](O)[C@@H](C(=O)NC(CO)CO)C(C2)O3)C(O)C(N)C1O` (stereo partly drawn) [AM-2-19], the Compatibility result in series [1] (setting [4]) is “compatible”; in series [1] (setting [5]), “compatible”; in series [1] (setting [6]), “Not compatible”; in series [1] (setting [7]), “Not compatible”; in series [1] (setting [8]) it was “Not compatible”; in series [1] (setting [9]), “Not compatible”. The “Precipitate/Pellet or Coagulation Observed” value in series [1] (setting [4]) is “None”; in series [1] (setting [5]), “None”; in series [1] (setting [6]), “Pellet (Very Light)”; in series [1] (setting [7]), “Pellet (Light)”; in series [1] (setting [8]) it was “Pellet (Moderate)”; in series [1] (setting [9]) it was “Pellet (Severe)”. Besides, the results for the solubility in series [2] (in D5W/DSG-PEG2000 (1:3 molar ratio) without the acetate buffer) and in series [2] (in D5W/DSG-PEG2000 with acetate buffer) were around 100 µg/mL and above 8000 µg/mL, respectively. The solution stability result in series [3] is “unstable even over the course of hours; also recorded: lacks solution stability”.
